Test results published in US11844845B2, “Cell penetrating peptide, conjugate comprising same, and composition comprising conjugate” (GEMVAX & KAEL CO., LTD., priority 2012, dated 2023).

Tested on: HeLa cell
Assay: Cell penetration of pep(CPP)-FITC conjugate in HeLa cell line, flow cytometry (FACS)
Type: cell-based, Homo sapiens
Settings: HeLa cells, 20 uM FITC-fused peptide, 37° C. for an hour, control = FITC only
Method: Homo sapiens cervix adenocarcinoma cell line as HeLa cell lines were purchased from ATCC (American Type Cell Culture). The cells were cultured in MEM supplemented with 10% fetal bovine serum (Invitrogen, USA), Earle's salts, non-essential amino acids, sodium pyruvate and 100 μg/ml penicillin and 10 units/ml streptomycin and cultured at 37° C., 5% CO2 incubator.
Flow cytometry and Confocal microscope analysis were performed to compare the between degree of cellular uptake of the cells were treated with SEQ ID NO: 2 to SEQ ID NO: 178, pep (CPP) and control.
The cell line was divided in a 6-well plate and cultured in a medium containing 10% fetal bovine serum (Invitrogen, USA), 100 μg/ml penicillin, 100 units/ml streptomycin at 37° C. 5% CO2 incubator for 12 hours. After washing the cell line with PBS, starvation was induced in a Minimum Essential Medium for an hour. 20 uM of each carrier peptide was treated and cultured at 37° C. for an hour. After repeating the step of washing the cells with PBS for three times, Trypsin-EDTA was treated form 10 mins at 37° C. to separate the carrier peptide on the outside of the cell. cells were collected with refrigerated PBS and centrifugation was performed to repeat the step of washing the cells for three times. After then, the cells were suspended in 0.5 ml of PBS containing 4% Paraformaldehyde and fluorescence of the cells was analyzed using FACS Calibur (Becton Dickinson). The cellular uptake aspect of control and various peptides combined with FITC was compared and analyzed by MFI (Mean Fluorescence Intensity).
Analysis results shown in FIGS. 2 to 29 are given in detail in Table 7 below.

Row | Substance | cellular uptake, MFI (Mean Fluorescence Intensity)
1 | VRQHREARPALLTSRLRFIPKPDG (listed as Homo sapiens) [Pep-RIA-33] | 15.04 ± 0.68
2 | EARPALLT (listed as Homo sapiens) [Pep-RIA-85] | 10.1 ± 0.34
3 | RPALLTSRLRFIP (listed as Homo sapiens) [Pep-RIA-121] | 20.72 ± 0.33
4 | REARPALLTSRLRFIPKPD (listed as Homo sapiens) [Pep-RIA-18] | 13.4 ± 0.34
5 | EARPALLTSRLRFIPKPDGLRPI (listed as Homo sapiens) [Pep-RIA-70] | 16.32 ± 0.44
6 | EARPALLTSRLRFIPKPDGLRP (listed as Homo sapiens) [Pep-RIA-69] | 13.72 ± 0.68
7 | EARPALLTSRLRFIPKPDGLRPIVN (listed as Homo sapiens) [Pep-RIA-72] | 21.7 ± 1.21
8 | ELSEAEVRQHREARPALLTSRLRFIPK (listed as Homo sapiens) [Pep-RIA-11] | 15.22 ± 0.23
9 | VRQHREARPALLTSRLRFIPKPDGL (listed as Homo sapiens) [Pep-RIA-34] | 16.37 ± 0.97
10 | EARPALLTSRLRFI (listed as Homo sapiens) [Pep-RIA-79] | 10.73 ± 1.18
11 | ARPALLTSRLRFIPK (listed as Homo sapiens) [Pep-RIA-91] | 19.96 ± 0.51
12 | LTSR (listed as Homo sapiens) [Pep-RIA-109] | 9.37 ± 0.31
13 | LTSRLRFI (listed as Homo sapiens) [Pep-RIA-154] | 12.21 ± 1.29
14 | LLTSRLR (listed as Homo sapiens) [Pep-RIA-149] | 16.2 ± 0.22
15 | RPAL (listed as Homo sapiens) [Pep-RIA-128] | 12.41 ± 0.16
16 | RQHREARPALLTSRLRFIPKPDGLRPI (listed as Homo sapiens) [Pep-RIA-60] | 15.93 ± 1.84
17 | RPA (listed as Homo sapiens) [Pep-RIA-129] | 11.18 ± 0.97
18 | ARPALL (listed as Homo sapiens) [Pep-RIA-117] | 15.06 ± 0.58
19 | EARPALL (listed as Homo sapiens) [Pep-RIA-86] | 9.95 ± 2.34
20 | RPALLTS (listed as Homo sapiens) [Pep-RIA-125] | 11.07 ± 0.55
21 | PALLTSRLRF (listed as Homo sapiens) [Pep-RIA-106] | 18.41 ± 1.12
22 | AEVRQHREARPALLTSRLRFIPKPDGLRPI (listed as Homo sapiens) [Pep-RIA-57] | 16.75 ± 0.48
23 | EAEVRQHREARPALLTSRLRFIPK (listed as Homo sapiens) [Pep-RIA-8] | 14.12 ± 0.79

Row | Substance | cellular uptake, MFI (Mean Fluorescence Intensity)
24 | SRL (listed as Homo sapiens) [Pep-RIA-169] | 5.64 ± 0.65
25 | LRFIPK (listed as Homo sapiens) [Pep-RIA-100] | 14.69 ± 1.48
26 | LRFIP (listed as Homo sapiens) [Pep-RIA-174] | 5.66 ± 0.33
27 | EARPALLTS (listed as Homo sapiens) [Pep-RIA-84] | 10.32 ± 0.49
28 | ARPALLTSRLRFI (listed as Homo sapiens) [Pep-RIA-110] | 11.89 ± 0.68
29 | EARPA (listed as Homo sapiens) [Pep-RIA-88] | 8.89 ± 0.61
30 | QHREARPALLTSRLRFIPKPDGL (listed as Homo sapiens) [Pep-RIA-28] | 14.8 ± 0.32
31 | ALLTSR (listed as Homo sapiens) [Pep-RIA-142] | 13.23 ± 0.57
32 | RPALLTSRLRFIPK (listed as Homo sapiens) [Pep-RIA-92] | 26.28 ± 0.38
33 | EARPALLTSRLRFIPKPDGLRPIVNMDYVV (listed as Homo sapiens) [Pep-RIA-77] | 87.67 ± 0.93
34 | PALLTSRLR (listed as Homo sapiens) [Pep-RIA-132] | 13.72 ± 0.52
35 | RPALLTSRLR (listed as Homo sapiens) [Pep-RIA-123] | 17.31 ± 0.68
36 | REARPALLTSRLRFIPKPDGLRPI (listed as Homo sapiens) [Pep-RIA-63] | 19.72 ± 0.33
37 | ARP (listed as Homo sapiens) [Pep-RIA-120] | 10.04 ± 0.53
38 | PALLTSRLRFIP (listed as Homo sapiens) [Pep-RIA-130] | 18.54 ± 1.64
39 | PAL (listed as Homo sapiens) [Pep-RIA-138] | 10.8 ± 0.78
40 | RQHREARPALLTSRLRFIPKP (listed as Homo sapiens) [Pep-RIA-24] | 19.42 ± 0.72
41 | LLTSRL (listed as Homo sapiens) [Pep-RIA-108] | 14.59 ± 0.17
42 | VRQHREARPALLTSRLRFIPK (listed as Homo sapiens) [Pep-RIA-5] | 20.24 ± 0.34
43 | HREARPALLTSRLRFIPKPDGLRPI (listed as Homo sapiens) [Pep-RIA-62] | 18.89 ± 0.75
44 | EARPALLTSRL (listed as Homo sapiens) [Pep-RIA-82] | 10.12 ± 0.95
45 | TSRLRF (listed as Homo sapiens) [Pep-RIA-161] | 14.41 ± 0.81
46 | LLTSR (listed as Homo sapiens) [Pep-RIA-150] | 14.51 ± 0.81

Row | Substance | cellular uptake, MFI (Mean Fluorescence Intensity)
47 | ARPALLT (listed as Homo sapiens) [Pep-RIA-116] | 11.32 ± 0.99
48 | REARPALLTSRLRFIPK (listed as Homo sapiens) [Pep-RIA-1] | 24.3 ± 0.61
49 | PALLTSRL (listed as Homo sapiens) [Pep-RIA-133] | 12.95 ± 0.69
50 | HREARPALLTSRLRFIPKPDG (listed as Homo sapiens) [Pep-RIA-22] | 14.42 ± 0.28
51 | AEVRQHREARPALLTSRLRFIPKPDGLR (listed as Homo sapiens) [Pep-RIA-55] | 18.75 ± 1.51
52 | EARPALLTSRLR (listed as Homo sapiens) [Pep-RIA-81] | 14.63 ± 0.22
53 | VRQHREARPALLTSRLRFIPKPDGLRP (listed as Homo sapiens) [Pep-RIA-46] | 15.35 ± 0.92
54 | RPALLTSRLRFI (listed as Homo sapiens) [Pep-RIA-105] | 19.4 ± 0.59
55 | EARPALLTSRLRFIPKP (listed as Homo sapiens) [Pep-RIA-64] | 15.51 ± 0.58
56 | AEVRQHREARPALLTSRLRFIPK (listed as Homo sapiens) [Pep-RIA-7] | 16.49 ± 1.35
57 | REARPALLTSRLRFIPKPDGLRP (listed as Homo sapiens) [Pep-RIA-50] | 15.47 ± 0.73
58 | ALLT (listed as Homo sapiens) [Pep-RIA-144] | 14.54 ± 0.21
59 | PALLTSRLRFIPK (listed as Homo sapiens) [Pep-RIA-93] | 22.88 ± 1.82
60 | AEVRQHREARPALLTSRLRFIPKPDGL (listed as Homo sapiens) [Pep-RIA-54] | 13.71 ± 0.11
61 | ARPALLTSRLRFIP (listed as Homo sapiens) [Pep-RIA-104] | 22.51 ± 0.96
62 | REARPALLTSRLRFIPKPDG (listed as Homo sapiens) [Pep-RIA-23] | 16.57 ± 0.68
63 | RQHREARPALLISRLRFIPKPD (RQHREARPALLTSRLRFIPKPD; listed as Homo sapiens) [Pep-RIA-25] | 17.41 ± 0.32
64 | EARPALLTSRLRFIPKPDG (listed as Homo sapiens) [Pep-RIA-66] | 13.46 ± 0.19
65 | QHREARPALLTSRLRFIPKPDGLR (listed as Homo sapiens) [Pep-RIA-37] | 16.73 ± 0.28
66 | HREARPALLTSRLRFIPKPDGLRP (listed as Homo sapiens) [Pep-RIA-49] | 15.15 ± 0.62
67 | LTSRL (listed as Homo sapiens) [Pep-RIA-157] | 11.42 ± 0.32
68 | RPALLT (listed as Homo sapiens) [Pep-RIA-126] | 11.51 ± 1.84
69 | IPK (listed as Homo sapiens) [Pep-RIA-103] | 10.44 ± 0.18
